Patent US10787444B2, “Compounds for the modulation of myc activity” (Syros Pharmaceuticals, Inc., priority 2015, dated 2020)
Where two headings read alike, the source gives them in different places.

Tests used:
c-Myc/Max/Ebox DNA = molecular target: T1, c-Myc/Max/Ebox DNA (Homo sapiens, UniProt P01106); test: c-Myc/Max/Ebox DNA AlphaScreen Assay; type: binding; conditions: calculated IC50 class
T1 construct: his6 (cleaved yes)
In short: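 Compounds were preincubated with free c-Myc (20 nM), biotinylated single-Ebox DNA (10 nM) and Ni acceptor beads before his6-Max (5 nM) and streptavidin donor beads were added. Buffer was 50 mM HEPES pH 8.0, 150 mM NaCl, BSA, Tween20, glycogen and DTT, with DMSO ≤2%. After 2 h incubation, AlphaScreen signal was read at 680 nm excitation and 520–620 nm emission.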

[1] = tested on: human small lung cancer cell line H2171; test: Cell Viability Assay (ATPlite); type: cell-based; conditions: read-out: H2171 Activity
In short: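 H2171 cells were plated at 20,000 cells/mL and dosed immediately by pin transfer with a 10-point dose series in DMSO. After three days at 37° C, ATPlite luminescence served as the viability readout.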

[2] = Table 2, compounds of FIG. 1, H2171 cells, three days, ATPlite, calculated IC50 class
[3] = Homo sapiens, NCI-H2171, 72 h, Table 2, compounds of FIG. 1, H2171 cells, three days, ATPlite, calculated IC50 class
[4] = Homo sapiens, NCI-H2171, 72 h, Table 3, compounds of FIG. 2, H2171 cells, three days, ATPlite, calculated IC50 class

T1 sequence (P01106 whole entry): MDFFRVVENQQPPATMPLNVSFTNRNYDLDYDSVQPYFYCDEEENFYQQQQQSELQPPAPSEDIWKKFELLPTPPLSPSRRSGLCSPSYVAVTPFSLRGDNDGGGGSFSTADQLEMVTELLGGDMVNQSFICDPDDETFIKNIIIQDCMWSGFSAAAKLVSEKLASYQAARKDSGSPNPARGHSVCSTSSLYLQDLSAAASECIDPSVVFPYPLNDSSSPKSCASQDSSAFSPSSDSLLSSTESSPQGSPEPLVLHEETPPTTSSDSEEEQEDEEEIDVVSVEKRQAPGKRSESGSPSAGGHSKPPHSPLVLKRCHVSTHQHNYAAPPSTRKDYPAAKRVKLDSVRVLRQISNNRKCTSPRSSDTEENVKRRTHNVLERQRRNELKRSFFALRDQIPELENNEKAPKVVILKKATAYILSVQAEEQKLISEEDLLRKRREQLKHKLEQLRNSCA

SMILES	IC50 (c-Myc/Max/Ebox DNA; Table 2, compounds of FIG. 1) [nM]	IC50 [1, 3] [nM]	further results
COCCNCCC(=O)Nc1sc2c(c1-c1nc3cc(F)ccc3s1)CC(C)NC2C (single isomer, unassigned) [Compound 544, N-(3-(5-Fluorobenzo[d]thiazol-2-yl)-5,7-dimethyl-4,5,6,7-tetrahydrothieno[2,3-c]pyridin-2-yl)-3-((2-methoxyethyl)amino)propanamide]	< 300	< 300	
COCCNCCC(=O)Nc1sc2c(c1-c1nc3ccc(-c4cccc(C(=O)NCCN(C)C)c4)cc3s1)CCNC2 [compound 493]	< 300	< 300	
CC(C)N1CCc2c(sc(NC(=O)CCN3CCC3)c2-c2nc3ccccc3s2)C1 [Compound 541, 3-(Azetidin-1-yl)-N-(3-(benzo[d]thiazol-2-yl)-6-isopropyl-4,5,6,7-tetrahydrothieno[2,3-c]pyridin-2-yl)propanamide]	300 to 1000		IC50 ([1]; Homo sapiens, NCI-H2171, 72 h): < 300 nM
CCC(C)NCCC(=O)Nc1sc2c(c1-c1nc3cc(C)c(C)cc3s1)CCNC2 (stereo not drawn) [Compound 576, 3-(sec-Butylamino)-N-(3-(5,6-dimethylbenzo[d]thiazol-2-yl)-4,5,6,7-tetrahydrothieno[2,3-c]pyridin-2-yl)propanamide]	< 300	< 300	
CC(C)NCCC(=O)Nc1sc2c(c1-c1nc3ccccc3s1)CCNC2 [Compound 129, N-(3-(benzo[d]thiazol-2-yl)-4,5,6,7-tetrahydrothieno[2,3-c]pyridin-2-yl)-3-(isopropylamino)propanamide]	< 300	< 300	
COCCNCCC(=O)Nc1sc2c(c1-c1nc3ccc(-c4cccnc4)cc3s1)CC(C)NC2C (single isomer, unassigned) [Compound 528, N-(5,7-Dimethyl-3-(6-(pyridin-3-yl)benzo[d]thiazol-2-yl)-4,5,6,7-tetrahydrothieno[2,3-c]pyridin-2-yl)-3-((2-methoxyethyl)amino)propanamide]	300 to 1000		IC50 [1, 2]: 300 to 1000 nM
CC(C)NCCC(=O)Nc1sc2c(c1-c1nc3cc(C4=CCOCC4)ccc3s1)CCNC2 [compound 165]	< 300	< 300	
COCCNCCC(=O)Nc1sc2c(c1-c1nc3c(CO)cccc3s1)CCNC2 [compound 598]	< 300	< 300	
CC(=O)Nc1sc2c(c1-c1nc3ccccc3s1)CCNC2 [Compound 202, N-(3-(benzo[d]thiazol-2-yl)-4,5,6,7-tetrahydrothieno[2,3-c]pyridin-2-yl)acetamide]			IC50 (c-Myc/Max/Ebox DNA; Table 3, compounds of FIG. 2): 1000 to 10000 nM; IC50 [1, 4]: < 300 nM
COCCNCCC(=O)Nc1sc2c(c1-c1nc3ccc(-c4ccc(O)nc4)cc3s1)CCNC2 [compound 374]	< 300	< 300	
CC(=O)Nc1sc2c(c1-c1nc3ccccc3s1)CCC(N)C2 (stereo not drawn) [Compound 221, N-(6-amino-3-(benzo[d]thiazol-2-yl)-4,5,6,7-tetrahydrobenzo[b]thiophen-2-yl)acetamide]			IC50 (c-Myc/Max/Ebox DNA; Table 3, compounds of FIG. 2): > 10000 nM; IC50 [1, 4]: > 10000 nM
CC[C@H](C)NCCC(=O)Nc1sc2c(c1-c1nc3cc(C(F)(F)F)ccc3s1)CCN(C(C)C)C2 [Compound 578, (S)-3-(sec-butylamino)-N-(6-isopropyl-3-(5-(trifluoromethyl)benzo[d]thiazol-2-yl)-4,5,6,7-tetrahydrothieno[2,3-c]pyridin-2-yl)propanamide]	300 to 1000	< 300	
O=C(CCN[C@@H]1C[C@H]2CNC[C@H]2C1)Nc1sc2c(c1-c1nc3ccccc3s1)CCNC2 [Compound 573, N-(3-(Benzo[d]thiazol-2-yl)-4,5,6,7-tetrahydrothieno[2,3-c]pyridin-2-yl)-3-(((3aR,5s,6aS)-octahydrocyclopenta[c]pyrrol-5-yl)amino)propanamide]	300 to 1000	300 to 1000	
COCCNCCC(=O)Nc1sc2c(c1-c1nc3cc(F)ccc3s1)C[C@H](C)NC2 [Compound 571]	< 300	< 300	
CC(C)N1CCc2c(sc(NC(=O)CCN3C(=O)C=CC3=O)c2-c2nc3ccccc3s2)C1 [Compound 133, N-(3-(benzo[d]thiazol-2-yl)-6-isopropyl-4,5,6,7-tetrahydrothieno[2,3-c]pyridin-2-yl)-3-(2,5-dioxo-2,5-dihydro-1H-pyrrol-1-yl)propanamide]	> 10000	1000 to 10000	

The next lines start with results.

IC50 (c-Myc/Max/Ebox DNA; Table 2, compounds of FIG. 1) [nM]	IC50 [1, 3] [nM]	SMILES	further results
< 300		CC(C)NCCC(=O)Nc1sc2c(c1-c1nc3ccccc3s1)CC(C)NC2C (single isomer, unassigned) [Compound 195, N-(3-(benzo[d]thiazol-2-yl)-5,7-dimethyl-4,5,6,7-tetrahydrothieno[2,3-c]pyridin-2-yl)-3-(isopropylamino)propanamide]	IC50 [1, 2]: < 300 nM
1000 to 10000	< 300	COCCNCCC(=O)Nc1sc2c(c1-c1nc3ccccc3s1)CC(C)NC2C (single isomer, unassigned) [Compound 508, N-(3-(Benzo[d]thiazol-2-yl)-5,7-dimethyl-4,5,6,7-tetrahydrothieno[2,3-c]pyridin-2-yl)-3-((2-methoxyethyl)amino)propanamide]	
< 300		CCC(C)N(C)CCC(=O)Nc1sc2c(c1-c1nc3ccccc3s1)CCN(C(C)C)C2 (stereo not drawn) [Compound 122]	IC50 [1, 2]: 300 to 1000 nM
< 300	< 300	COCCNCCC(=O)Nc1sc2c(c1-c1nc3ccc(-c4ccc(N5CCNCC5)nc4)cc3s1)CCNC2 [compound 504]	
< 300		COCCNCCC(=O)Nc1sc2c(c1-c1nc3cc(-c4cnn(C)c4)ccc3s1)CC(C)NC2C (single isomer, unassigned) [Compound 565, N-(5,7-Dimethyl-3-(5-(1-methyl-1H-pyrazol-4-yl)benzo[d]thiazol-2-yl)-4,5,6,7-tetrahydrothieno[2,3-c]pyridin-2-yl)-3-((2-methoxyethyl)amino)propanamide]	IC50 [1, 2]: < 300 nM
< 300	< 300	COCCNCCC(=O)Nc1sc2c(c1-c1nc3cc(-c4cncc(OC)c4)ccc3s1)CCNC2 [compound 349]	
< 300	< 300	COCCNCCC(=O)Nc1sc2c(c1-c1nc3cc(-c4ccncc4)ccc3s1)CCNC2 [compound 308]	
< 300	< 300	COCCNCCC(=O)Nc1sc2c(c1-c1nc3cc(-c4cnn(C)c4)ccc3s1)CCNC2 [compound 184]	
< 300		COCCNCCC(=O)Nc1sc2c(c1-c1nc3cc(C(F)(F)F)ccc3s1)CC(C)NC2 (single isomer, unassigned) [Compound 551, 3-((2-Methoxyethyl)amino)-N-(5-methyl-3-(5-(trifluoromethyl)benzo[d]thiazol-2-yl)-4,5,6,7-tetrahydrothieno[2,3-c]pyridin-2-yl)propanamide]	IC50 [1, 2]: < 300 nM
< 300	< 300	CC(C)NCCC(=O)Nc1sc2c(c1-c1nc3c(-c4ccncc4)cccc3s1)CCNC2 [compound 535]	
< 300	< 300	COCCNCCC(=O)Nc1sc2c(c1-c1nc3ccc(-c4ccnc(F)c4)cc3s1)CCNC2 [compound 456]	
< 300	< 300	COCCNCCC(=O)Nc1sc2c(c1-c1nc3ccc(-c4cc[nH]n4)cc3s1)CCNC2 [compound 361]	
